Values quoted from earlier work in publication PMC6954965 (Neuropharmacology, 2019).

Key:
PSD95 tandem PDZ domains = conditions: dimeric peptide inhibitor of PSD95 tandem PDZ domains; ref Bach et al., 2012
Male Sprague-Dawley rats = conditions: administered directly into the nucleus accumbens shell; ref Schmidt et al., 2013
PICK1 PDZ domain = conditions: binds the PDZ domain of PICK1; ref Thorsen et al., 2010

| Compound | Ki (PSD95 tandem PDZ domains) | reinstatement of cocaine seeking (Male Sprague-Dawley rats) | Ki (PICK1 PDZ domain) |
| --- | --- | --- | --- |
| Tat-NPEG4(IEDTV)(2) | 0.0046 µM |  |  |
| CCOC(=O)NC(=O)/C(C#N)=C/c1ccc(Cl)c(Cl)c1 [FSC231] |  | sufficient to attenuate | 10.1 µM |
